Experimental data published in ChEMBL document CHEMBL1140957, “GRIND-based 3D-QSAR to predict inhibitory activity for similar enzymes, OSC and SHC” (Eur J Med Chem, 2008).
“And” between values parts separate entries of the source, which are not always exact repeats. Equal entries are not always repeated.

Target: not listed separately
Assay: Inhibition of squalene-hopene cyclase

**Q.** With CN(CCCCCCOC1CCN(C(=O)c2ccc(F)cc2)CC1)C1CC1 as the molecule, how does the pIC50 read?
**A.** 6.12

**Q.** For CN(C[C@H]1C[C@@H]1COc1ccc(C(=O)c2ccc(Br)cc2)c(F)c1)C1CC1, which pIC50 is on record?
**A.** 7.3

**Q.** Which pIC50 does the source give for CN(CCCCCCOc1ccc(C(=O)c2ccc(Br)cc2)c(F)c1)C1CC1 here?
**A.** 7.42

**Q.** Which pIC50 does the source give for C=CCN(C)CCCCCCOc1ccc2c(-c3ccc(Br)cc3)noc2c1 here?
**A.** 7.12

**Q.** Which pIC50 does the source give for C=CCN(C)CCCCCCOc1ccc(C(=O)c2ccc(Br)cc2)cc1 here?
**A.** 7.02

**Q.** With CN(CCCO)CCCCCCOc1ccc(C(=O)c2ccc(Br)cc2)cc1 as the molecule, how does the pIC50 read?
**A.** 6.55

**Q.** Which pIC50 does the source give for C=CCN(C)CCCCCCOc1ccc2c(c1)c(C)nn2C here?
**A.** 6.54 and 6.48

**Q.** Which pIC50 does the source give for CN(C[C@H]1C[C@@H]1COc1ccc(C(=O)c2ccc(Br)cc2)cc1)C1CC1 here?
**A.** 7.21

**Q.** For C=CCN(C)C/C=C/COc1ccc(C(=O)c2ccc(Br)cc2)cc1, which pIC50 is on record?
**A.** 7.4

**Q.** With C=CCN(C)C/C=C/COc1ccc(-c2nsc3cc(Br)ccc23)cc1 as the molecule, how does the pIC50 read?
**A.** 6.89

**Q.** For C=CCN(C)C/C=C/COc1ccc2c(-c3ccc(Br)cc3)csc2c1, which pIC50 is on record?
**A.** 7.12

**Q.** With C=CCN(C)C/C=C/COc1ccc2c(-c3ccc(Br)cc3)noc2c1 as the molecule, how does the pIC50 read?
**A.** 7.31

**Q.** With C=CCN(C)CCCCCCOC1CCN(C(=O)c2ccc(F)cc2)CC1 as the molecule, how does the pIC50 read?
**A.** 5.92

**Q.** For C=CCN(C)CCCCCCOc1ccc2c(c1)CON=C2c1ccc(Br)cc1, which pIC50 is on record?
**A.** 6.76

Target: T1, Lanosterol synthase (Homo sapiens, UniProt P48449)
T1 sequence (P48449 whole entry): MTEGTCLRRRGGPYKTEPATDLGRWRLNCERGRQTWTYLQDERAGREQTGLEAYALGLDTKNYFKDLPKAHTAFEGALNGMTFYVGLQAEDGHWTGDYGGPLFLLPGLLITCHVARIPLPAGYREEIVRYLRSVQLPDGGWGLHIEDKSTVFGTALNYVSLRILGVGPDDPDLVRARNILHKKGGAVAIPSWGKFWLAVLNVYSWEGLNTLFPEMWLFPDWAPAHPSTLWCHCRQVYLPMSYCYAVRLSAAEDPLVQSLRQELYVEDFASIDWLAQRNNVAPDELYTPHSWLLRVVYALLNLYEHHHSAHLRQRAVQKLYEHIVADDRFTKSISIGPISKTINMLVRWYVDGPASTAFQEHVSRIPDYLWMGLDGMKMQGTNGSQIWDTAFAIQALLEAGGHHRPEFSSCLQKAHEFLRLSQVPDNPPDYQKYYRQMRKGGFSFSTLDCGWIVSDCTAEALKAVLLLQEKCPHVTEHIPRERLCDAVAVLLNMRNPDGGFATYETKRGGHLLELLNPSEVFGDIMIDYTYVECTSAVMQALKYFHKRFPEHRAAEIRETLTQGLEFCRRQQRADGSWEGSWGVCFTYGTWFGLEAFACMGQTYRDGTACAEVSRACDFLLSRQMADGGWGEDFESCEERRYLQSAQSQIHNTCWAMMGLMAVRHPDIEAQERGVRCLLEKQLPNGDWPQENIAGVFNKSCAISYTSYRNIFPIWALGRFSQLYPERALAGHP
Assay: Inhibition of oxidosqualene cyclase

**Q.** For C=CCN(C[C@H]1C[C@@H]1COc1ccc(C(=O)c2ccc(Br)cc2)cc1)C1CC1, which IC50 is on record?
**A.** 0.00646 µM

**Q.** With CN(CCCO)CCCCCCOc1ccc(C(=O)c2ccc(Br)cc2)cc1 as the molecule, how does the IC50 read?
**A.** 0.0288 µM

**Q.** With C=CCN(C)CCCCCCOc1ccc2c(c1)c(C)nn2C as the molecule, how does the IC50 read?
**A.** 0.0195 µM
